From ChEMBL document CHEMBL1201862, “PubChem BioAssay data set” (2004)
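Growth conditions: 96-well plates. Treatment: test compound, 48 hours, 5 concentrations. Analysis: linear interpolation between bracketing concentrations; unreached endpoints set to highest concentration. GI50 is the concentration that inhibits growth by half.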 Activity calls are given as the source filed them. Cut-off read from the data, not from the text of the source: active = GI50 up to about 1.1 µM and inactive = higher.

Assays:
Experiment in all cases: NCI tumour cell line growth inhibition, 48 h
[1] = system: EKVX
[2] = system: NCI-H522
[3] = system: SF-295
[4] = system: LOX IMVI
[5] = system: HOP-92
[6] = system: HT-29
[7] = system: SNB-19
[8] = system: SF-539
[9] = system: HCT-116
[10] = system: HCC 2998
[11] = system: SK-MEL-5
[12] = system: KM12
[13] = system: MOLT-4
[14] = system: IGROV-1
[15] = system: OVCAR-8
[16] = system: NCI-H23
[17] = system: SF-268
[18] = system: Malme-3M
[19] = system: SN12C
[20] = system: SW-620

Measured: GI50

CC(NC(=O)C(NC(=O)CNC(=O)OC(C)(C)C)C(C)C)C(=O)Oc1c(Cl)c(Cl)c(Cl)c(Cl)c1Cl (stereo unspecified)
inactive: [1] 27.4 µM | [2] 23.9 µM | [3] 14.5 µM | [4] 15.5 µM | [5] 16.3 µM | [6] 26.4 µM | [7] 30.8 µM | [8] 17.5 µM | [9] 17.3 µM | [10] 19.6 µM | [11] 17.1 µM | [12] 15.1 µM | [13] 34.6 µM | [14] 20.3 µM | [15] 19.4 µM | [16] 14 µM | [17] 23 µM | [18] 21.5 µM | [19] 19.2 µM | [20] 24.7 µM

N#CCCN(CCC#N)c1ccc(/C=C2\N=C(c3cc([N+](=O)[O-])ccc3Cl)N(NC(=O)CC(=O)Nc3ccccc3Cl)C2=O)cc1
inactive: [1] > 100 µM | [2] > 100 µM | [3] > 100 µM | [4] > 100 µM | [5] > 100 µM | [7] > 100 µM | [8] > 100 µM | [9] > 100 µM | [10] > 100 µM | [11] > 100 µM | [12] > 100 µM | [13] > 100 µM | [14] > 100 µM | [15] > 100 µM | [16] > 100 µM | [17] > 100 µM | [18] > 100 µM | [19] > 100 µM | [20] > 100 µM

COc1ccc(NC(=O)/C(=C/c2ccc(N(CCC#N)CCC#N)cc2)NC(=O)c2cc([N+](=O)[O-])ccc2Cl)cc1
inactive: [1] 52.1 µM | [2] 4.27 µM | [3] 19.6 µM | [4] 18.4 µM | [5] > 100 µM | [7] > 100 µM | [8] 18.9 µM | [9] 48.2 µM | [10] 45.8 µM | [11] > 100 µM | [12] 68.2 µM | [13] 83.8 µM | [14] 65.9 µM | [15] 38.9 µM | [16] > 100 µM | [17] 27.2 µM | [18] > 100 µM | [19] > 100 µM | [20] 98.6 µM

COC(=N)C(C)C
inactive: [2] > 100 µM | [3] > 100 µM | [4] > 100 µM | [5] > 100 µM | [6] > 100 µM | [7] > 100 µM | [8] > 100 µM | [9] > 100 µM | [10] > 100 µM | [11] > 100 µM | [12] > 100 µM | [13] > 100 µM | [14] > 100 µM | [16] > 100 µM | [17] > 100 µM | [18] > 100 µM | [19] > 100 µM | [20] > 100 µM
